Reference: patent publication US8673325B1, “Cosmetic compositions comprising EPA and salicylic acid and methods of making and using same” (Dignity Sciences Limited, priority 2012, dated 2014)
≈ marks a conversion by molar mass, not a printed value. Read-outs that look alike come from different tables or passages of the source.

System: P. acnes NCTC737
Assay: MIC and MBC against P. acnes by broth micro-dilution (CLSI M11-A5)
Assay type: cell-based
Settings: for MIC: anaerobic 37° C., 48 h, lowest concentration preventing visible growth
Description: Neomycin (“NEO”) was obtained and used as a 10 mg/mL solution in sterile saline. P. acnes NCTC737 was obtained from the National Collection of Type Cultures (Porton Down, UK). Minimum inhibitory (MIC) and bactericidal (MBC) concentration determinations MICs and MBCs were determined against P. acnes by broth micro-dilution according to protocol M11-A5 published by the Clinical and Laboratory Standards Institute (CLSI, 2001). […] ([…] Workstation; Don Whitley Scientific Ltd., Shipley, UK). Absorbance readings (A600) for the bacterial suspensions were determined and fresh media was used to adjust the inoculums to 1×10^7 CFU/mL. Inoculum sizes were confirmed by diluting in phosphate-buffered saline (PBS) and plating on SBA. Each well was inoculated with 5 μL of bacterial suspension. Negative control wells contained culture medium only, while positive control wells contained media inoculated with bacterial suspension. Further inoculated wells controlled for the antimicrobial effects of the greatest concentration of solvent (DMSO or ethanol) used in any of the test wells (ca. 10%). Microtitre plates were incubated anaerobically at 37° C. for 48 h, and then MICs were determined as the lowest concentration of each compound that prevented visible bacterial growth. MBCs were determined by plating 50 μL from each well showing no visible growth on to SBA and incubating these plates anaerobically at 37° C. for 96 h. […] MICs and MBCs were performed in duplicate.

[1] = Cutibacterium acnes, NCTC737, 48 h, read-out: MIC
[2] = Cutibacterium acnes, NCTC737, lowest concentration that killed >99.9% of the initial inoculum, read-out: MBC

SMILES | MIC [1] [µg/mL] | MIC [µg/mL] | MBC (MEC) [mg/mL] | MBC [2] [mg/mL] | MBC (lowest concentration that killed >99.9% of the initial inoculum) [mg/mL]
O=C(O)CCCCCCCC(=O)O [AZA, azelaic acid] | > 4100 | >4096 | >4.096 |  | 
O=C(OOC(=O)c1ccccc1)c1ccccc1 [BPO, benzoyl peroxide] | 64 (≈ 264 µM) |  | >4.096 | > 4.1 | 
CC/C=C\C/C=C\C/C=C\C/C=C\C/C=C\CCCC(=O)O [EPA, eicosapentaenoic acid] | 64 to 128 (≈ 212 to 423 µM) | 128 (≈ 423 µM) | >4.096 | > 4.1 | 
NS(=O)(=O)c1cc(C(=O)O)c(NCc2ccco2)cc1Cl [FUS, furosemide] | 2 (≈ 6.05 µM) |  | 0.256 (≈ 774 µM) | 0.256 (≈ 774 µM) | 
CCCCC/C=C\C/C=C\C/C=C\CCCCC(=O)O [GLA, gamma-linolenic acid] | 64 to 128 (≈ 230 to 460 µM) | 64 (≈ 230 µM) | >4.096 | > 4.1 | 

Now from value to compound, other results behind:

MIC [1] [µg/mL] | MIC [µg/mL] | SMILES | MBC (MEC) [mg/mL] | MBC [2] [mg/mL] | MBC (lowest concentration that killed >99.9% of the initial inoculum) [mg/mL]
 | 8 (≈ 13 µM) | NC[C@@H]1O[C@H](O[C@H]2[C@@H](O)[C@H](O[C@@H]3[C@@H](O)[C@H](N)C[C@H](N)[C@H]3O[C@H]3O[C@H](CN)[C@@H](O)[C@H](O)[C@H]3N)O[C@@H]2CO)[C@H](N)[C@@H](O)[C@@H]1O [NEO, Neomycin] | 0.016 (≈ 26 µM) |  | 0.016 (≈ 26 µM)
64 (≈ 463 µM) |  | O=C(O)c1ccccc1O [SA, salicylic acid] | >4.096 | > 4.1 | 
